Data taken from patent publication US7728146B2, “Enzyme inhibitors” (Probiodrug AG, priority 2006, dated 2010).
Like-named read-outs stand apart in the source and are kept apart here.

Biological target: DP IV (Homo sapiens, UniProt P27487)
Experiment: DP IV inhibition IC50, parallel-synthesis compounds tested directly following synthesis (without purification)
Type: biochemical
Design: IC50 DP4; other: tested directly following parallel synthesis, without purification; compounds of formula (Ib) from parallel synthesis, tested directly following synthesis
Experimental: Compounds were immediately tested regarding their activity as DP IV inhibitors.
Substances are screened for inhibition of dipeptidyl peptidase (DP IV) by their ability to inhibit the hydrolysis of the DP IV specific substrate Glycyl-Prolyl-4-Nitroanilide (Gly-Pro-pNA). All compounds are diluted in DMSO and IC50 will be determined with 11 serial dilutions (1:2) starting with an final concentration of 100 μM. The final DMSO concentration in the assay is 5% (v/v). The method was automated using a Tecan Genesis Freedom liquid handler and a Genius Pro (Tecan) microplate reader.
DP IV from porcine kidney (pDP IV) or recombinant human DP IV (rhDP IV) is diluted in HEPES buffer to a final activity of approximately 40-50 μU*ml^−1. The DP IV is stored in a cooling rack (4° C.) on the liquid handler.
The assay may becarried out at room temperature using Freedom liquid handler connected with a Genios Pro microplate reader. Each sample is measured in duplicate. Each sample stock solution is prediluted with DMSO in a ratio of 1:5 in a polypropylen 96-well plate. From this predilution 10 serial (1:2) dilutions in DMSO are prepared. 13.5 μl of the 11 DMSO dilutions and DMSO alone are transferred to the measurement microplate (duplicates) and 86.5 μl water, 100 μl HEPES buffer and 50 μl substrate solution are added to each well. The enzymatic reaction is started by addition of 20 μl enzyme solution to each well, and then the microplate is immediately transferred to the microplate reader.
After short mixing (20 s) the release of 4-Nitroanilin (pNA) is monitored at 405 nm for 30 cycles (approx. 18 min).
Post assay calculations are done by the Magellan (Tecan) and Graphit Software. The linear slopes are calculated for each well and averaged for the duplicates. The residue activities are calculated in relation to a sample containing only solvent instead of inhibitor and expressed in %. Residue activities are plotted against the log of inhibitor concentrations and IC50 is calculated by an 4-parameter fitting ranging from 0 to 100%.

[1] = tested directly following parallel synthesis, without purification, read-out: IC50 DP4
[2] = DP IV inhibition, compounds of formula (Ib) from parallel synthesis, tested directly following synthesis (without purification), read-out: IC50

SMILES	IC50 [1] [µM]	IC50 [2] [µM]
CC(N)c1c(-c2ccc(Cl)cc2Cl)ncn1CCc1cccc(Cl)c1 (centres unmarked) [64b, 1-[3-[2-(3-Chloro-phenyl)-ethyl]-5-(2,4-dichloro-phenyl)-3H-imidazol-4-yl]-ethylamine]		28.9
NCc1c(-c2ccc(F)cc2F)ncn1Cc1ccc(F)cc1 [Example 74a, C-[5-(2,4-Difluoro-phenyl)-3-(4-fluoro-benzyl)-3H-imid-azol-4-yl]-methyl-amine]	44.2	
NCCCc1c(-c2ccc(Cl)cc2Cl)ncn1CCc1c[nH]c2cc(Cl)ccc12 [105b, 3-[3-[2-(6-Chloro-1H-indol-3-yl)-ethyl]-5-(2,4-dichloro-phenyl)-3H-imidazol-4-yl]-propylamine]		37.9
NCc1c(-c2ccc(F)cc2F)ncn1Cc1ccc(F)cc1F [Example 76a, C-[3-(2,4-Difluoro-benzyl)-5-(2,4-difluoro-phenyl)-3H-imid-azol-4-yl]-methyl-amine]	40.6	
COc1ccc(Cn2cnc(-c3ccc(Cl)cc3Cl)c2[C@H](C)N)c(OC)c1 [62b, (S)-1-[5-(2,4-Dichloro-phenyl)-3-(2,4-dimethoxy-benzyl)-3H-imidazol-4-yl]-ethylamine]		10
CC(N)c1c(-c2ccc(Cl)cc2Cl)ncn1CCCN1CCCC1=O (centres unmarked) [22b, 1-{3-[5-(1-Amino-ethyl)-4-(2,4-dichloro-phenyl)-imidazol-1-yl]-propyl}-pyrrolidin-2-one]		30.7
CC(N)c1c(-c2ccc(Cl)cc2Cl)ncn1CCC1=CCCCC1 (centres unmarked) [71b, 1-[3-(2-Cyclohex-1-enyl-ethyl)-5-(2,4-dichloro-phenyl)-3H-imidazol-4-yl]-ethylamine]		35.2
COc1ccc(-c2ncn(Cc3cc(Br)ccc3F)c2CN)c(C)c1 [Example 71a, C-[3-(5-Bro-mo-2-fluoro-benzyl)-5-(4-meth-oxy-2-methyl-phenyl)-3H-imid-azol-4-yl]-methyl-amine]	30.7	
C[C@H](N)c1c(-c2ccc(Cl)cc2Cl)ncn1CCc1c[nH]c2ccccc12 [103b, (S)-1-{5-(2,4-Dichloro-phenyl)-3-[2-(1H-indol-3-yl)-ethyl]-3H-imidazol-4-yl}-ethylamine]		44.2
NCc1c(-c2ccc(Cl)cc2Cl)ncn1Cc1ccsc1 [Example 43a, C-[5-(2,4-Dichloro-phenyl)-3-thio-phen-3-yl-methyl-3H-imid-azol-4-yl]-methyl-amine]	0.1	
Cc1ccc(-c2ncn(Cc3ccsc3)c2CN)c(C)c1 [Example 67a, C-[5-(2,4-Dimethyl-phenyl)-3-thio-phen-3-yl-methyl-3H-imid-azol-4-yl]-methyl-amine]	42.4	
COc1ccccc1Cn1cnc(-c2ccc(Cl)cc2Cl)c1C(C)N (centres unmarked) [80b, 1-[5-(2,4-Dichloro-phenyl)-3-(2-methoxy-benzyl)-3H-imidazol-4-yl]-ethylamine]		2.8
NCc1c(-c2ccc(F)cc2F)ncn1Cc1ccc2c(c1)OCO2 [Example 81a, C-[3-Ben-zo[1,3]di-oxol-5-yl-methyl-5-(2,4-difluoro-phenyl)-3H-imid-azol-4-yl]-methyl-amine]	46.9	
Cc1ccc(Cn2cnc(-c3ccc(Cl)cc3Cl)c2C(C)N)cc1 (centres unmarked) [116b, 1-[5-(2,4-Dichloro-phenyl)-3-(4-methyl-benzyl)-3H-imidazol-4-yl]-ethylamine]		23.5
CC(N)c1c(-c2ccc(Cl)cc2Cl)ncn1Cc1cc(F)ccc1F (centres unmarked) [36b, 1-[5-(2,4-Dichloro-phenyl)-3-(2,5-difluoro-benzyl)-3H-imidazol-4-yl]-ethylamine]		25.3
NCc1c(-c2ccc(Cl)cc2Cl)ncn1Cc1ccc2c(c1)OCO2 [Example 48a, C-[3-Ben-zo[1,3]di-oxol-5-yl-methyl-5-(2,4-dichloro-phenyl)-3H-imid-azol-4-yl]-methyl-amine]	0.1	

The next lines start with the values.

IC50 [1] [µM]	IC50 [2] [µM]	SMILES
48.7		CCCn1cnc(-c2ccc(F)cc2Cl)c1CN [Example 8a, C-[5-(2-Chloro-4-fluoro-phenyl)-3-pro-pyl-3H-imid-azol-4-yl]-methyl-amine]
6.4		CCOc1ccccc1Cn1cnc(-c2ccc(F)cc2Cl)c1CN [Example 18a, C-[5-(2-Chloro-4-fluoro-phenyl)-3-(2-ethoxy-benzyl)-3H-imidazol-4-yl]-methylamine]
0.1		NCc1c(-c2ccc(Cl)cc2Cl)ncn1Cc1ccccc1OC(F)(F)F [Example 55a, C-[5-(2,4-Dichloro-phenyl)-3-(2-tri-fluorometh-oxy-benzyl)-3H-imid-azol-4-yl]-methyl-amine]
	11.8	Cc1ccc(Cn2cnc(-c3ccc(Cl)cc3Cl)c2CN)cc1 [66b, C-[5-(2,4-Dichloro-phenyl)-3-(4-methyl-benzyl)-3H-imidazol-4-yl]-methylamine]
1.9		NCc1c(-c2ccc(Cl)cc2Cl)ncn1Cc1ccc(F)cc1Cl [Example 63a, C-[3-(2-Chloro-4-fluoro-benzyl)-5-(2,4-di-chloro-phenyl)-3H-imid-azol-4-yl]-methyl-amine]
	2.8	NCc1c(-c2ccc(Cl)cc2Cl)ncn1Cc1ccc(OC(F)(F)F)cc1 [97b, C-[5-(2,4-Dichloro-phenyl)-3-(4-trifluoromethoxy-benzyl)-3H-imidazol-4-yl]-methylamine]
	6.4	NCc1c(-c2ccc(Cl)cc2Cl)ncn1Cc1ccc(Br)cc1 [25b, C-[3-(4-Bromo-benzyl)-5-(2,4-dichloro-phenyl)-3H-imidazol-4-yl]-methylamine]
	32.5	NCc1c(-c2ccc(Cl)cc2Cl)ncn1CCNc1ccccc1 [41b, {2-[5-Aminomethyl-4-(2,4-dichloro-phenyl)-imidazol-1-yl]-ethyl}-phenyl-amine]
	22.6	NCc1c(-c2ccc(Cl)cc2Cl)ncn1CCCN1CCCC1=O [29b, 1-{3-[5-Aminomethyl-4-(2,4-dichloro-phenyl)-imidazol-1-yl]-propyl}-pyrrolidin-2-one]
31.6		NCc1c(-c2ccc(F)cc2Cl)ncn1Cc1ccc(F)cc1Cl [Example 29a, C-[3-(2-Chloro-4-fluoro-benzyl)-5-(2-chlo-ro-4-fluoro-phenyl)-3H-imid-azol-4-yl]-methyl-amine]
	48.7	NCCc1c(-c2ccc(Cl)cc2Cl)ncn1CCc1cccc(Cl)c1 [37b, 2-[3-[2-(3-Chloro-phenyl)-ethyl]-5-(2,4-dichloro-phenyl)-3H-imidazol-4-yl]-ethylamine]
0.1		NCc1c(-c2ccc(Cl)cc2Cl)ncn1Cc1ccco1 [Example 33a, C-[5-(2,4-Dichloro-phenyl)-3-furan-2-ylmethyl-3H-imidazol-4-yl]-methylamine]
	19.9	NCc1c(-c2ccc(Cl)cc2Cl)ncn1CCO [56b, 2-[5-Aminomethyl-4-(2,4-dichloro-phenyl)-imidazol-1-yl]-ethanol]
40.6		Cc1ccc(-c2ncn(Cc3ccccc3)c2CN)c(C)c1 [Example 69a, C-[3-Benzyl-5-(2,4-di-methyl-phenyl)-3H-imid-azol-4-yl]-methyl-amine]
	14.5	CC(N)c1c(-c2ccc(Cl)cc2Cl)ncn1Cc1ccccn1 (centres unmarked) [96b, 1-[5-(2,4-Dichloro-phenyl)-3-pyridin-2-ylmethyl-3H-imidazol-4-yl]-ethylamine]
22.6		NCc1c(-c2ccc(F)cc2Cl)ncn1Cc1cc(F)ccc1F [Example 27a, C-[5-(2-Chloro-4-fluoro-phenyl)-3-(2,5-difluoro-benzyl)-3H-imid-azol-4-yl]-methyl-amine]
	4.6	Cc1ccccc1Cn1cnc(-c2ccc(Cl)cc2Cl)c1CN [Example 33b, C-[5-(2,4-dichloro-phenyl)-3-(2-methyl-benzyl)-3H-imidazol-4-yl]-methylamine]
1		Cc1ccccc1Cn1cnc(-c2ccc(Cl)cc2Cl)c1CN [Example 46a, C-[5-(2,4-Dichloro-phenyl)-3-(2-methyl-benzyl)-3H-imid-azol-4-yl]-methyl-amine]
17.2		NCc1c(-c2ccc(F)cc2Cl)ncn1Cc1cccc(C(F)(F)F)c1 [Example 6a, C-[5-(2-Chloro-4-fluoro-phenyl)-3-(3-tri-fluoromethyl-benzyl)-3H-imid-azol-4-yl]-methyl-amine]
	15.4	NCc1c(-c2ccc(Cl)cc2Cl)ncn1CCc1ccc(Cl)cc1Cl [Example 32b, C-{5-(2,4-dichloro-phenyl)-3-[2-(2,4-dichloro-phenyl)-ethyl]-3H-imidazol-4-yl}-methylamine]
43.3		Cc1ccc(Cn2cnc(-c3ccc(F)cc3Cl)c2CN)cc1 [Example 24a, C-[5-(2-Chloro-4-fluoro-phenyl)-3-(4-methyl-benzyl)-3H-imid-dazol-4-yl]-methyl-amine]
	17.2	CCCn1cnc(-c2ccc(Cl)cc2Cl)c1CN [86b, C-[5-(2,4-Dichloro-phenyl)-3-propyl-3H-imidazol-4-yl]-methylamine]
